Results as given in patent US9018006B2, “Stable Tregs and related materials and methods” (The University of Toledo, priority 2010, dated 2015).

Legend:
iTreg cells = assay: Stability of Foxp3 expression of induced iTregs after re-stimulation with anti-CD3/anti-CD28 mAbs; format: cell-based, mouse; conditions: after repeated re-stimulation with anti-CD3/anti-CD28 mAbs; nTreg cells 80%
Description: FIGS. 4A-4B. Stability of Foxp3 expression and suppressor function of the two-phase induced iTreg T cells. The nTreg cells were isolated from spleen of naïve mice (left panel). Naïve mouse CD4^+Foxp3/GFP^− cells (1×10^6/ml) cultured with APCs were stimulated with anti-CD3 mAb in the presence of 5 ng/ml TGF-β, 5 μg/ml anti-IL-2 mAb (S4B6), or 100 nM CP-690,550 for 3 days. After washing, fresh medium was supplemented with 10 units/ml rIL-2 and cultured for additional 3 days (total 6 day culture). All these 4 populations were subsequently re-stimulated with anti-CD3 mAb/anti-CD28 mAb for 3 days and examined by FACscan for Foxp3 expression (FIG. 4A). Purified naive CD4^+Foxp3/GFP^− cells labeled with CFSE were used as T-effector (Teff) cells and mixed with re-stimulated nTreg cells or re-stimulated CP-690,550-induced iTreg cells. Proliferation was measured by the number of Teff cell divisions (FIG. 4B).
Furthermore, the stability of Foxp3 expression of anti-IL-2 mAb-(S4B6) or Jak3 inhibitor (CP-690,550)-induced iTregs was compared with TGF-β-induced iTregs.

[1] = tested on: Naïve CD4+ Foxp3/GFP− cells; assay: Two-phase induction/expansion of iTregs, Method 1 (anti-CD3/anti-CD28 plus inhibitor, then rIL-2); format: cell-based, mouse
transplant patients = conditions: compared with OKT3 mAb; cited from earlier work
T effector (Teff) cells = conditions: Teff:Treg 1:1, after repeated re-stimulation

TGF-β
induced iTreg cells that maintained Foxp3 expression (iTreg cells): 4.3%

O=C(N/N=C/c1coc2ccccc2c1=O)c1cccnc1 [Stat5 inhibitor]
naïve CD4+ Foxp3/GFP− cells converted into CD4+CD25+Foxp3/GFP+ iTregs ([1]; 100 ng/ml Stat5 inhibitor first 3 days, then rIL-2 3 days, untreated controls 7%): 36%

OKT3 mAb: mouse anti-human CD3 agonist mAb
adverse effects in patients (transplant patients): elicited the release of many cytokines causing flu-like symptoms

C[C@@H]1CCN(C(=O)CC#N)C[C@@H]1N(C)c1ncnc2[nH]ccc12 [CP-690,550]
Foxp3 expression during proliferation (cell divisions) ([1]; 6-day culture): maintained similar levels of Foxp3 expression | number of CD4+CD25+Foxp3/GFP+ cells on day 6 of culture ([1]; from initial 0.05×10^6 CD4+ Foxp3/GFP− cells): 0.4×10^6 cells | expansion in the number of iTreg cells ([1]; initial 3-day exposure, day 6 of culture): 8 fold | induced iTreg cells that maintained Foxp3 expression (iTreg cells): 75% | suppressor function of induced iTreg cells (T effector (Teff) cells): maintained very potent suppressor function
